For 39 molecules, IC50 results are on record in US12528818B2, “Compositions and methods for inhibition of RAS” (Leidos Biomedical Research, Inc., priority 2021, dated 2026).

In one test the test system is pERK in NCI-H358 cells. As to the kind of experiment: Cell-based pERK HTRF assay (pERK inhibition in H358 cells). Particulars: Homo sapiens, NCI-H358, 0.5 h, pERK inhibition IC50, NCI-H358 cells, 30 min incubation; read-out: PERK in H358 cell. The method, then:
On Day 1, cells (NCI-H358) were seeded into 96-well plates at 4×10^4 cells/well in complete growth media (RPMI, 10% FBS).
The source plate was created with compounds diluted in media at 5-fold the final assay concentration. […] 20 μL was transferred onto the cell plates (final volume in wells was 100 μL). Plates were harvested after 30 min incubation by aspirating media and adding kit-supplied 1× supplemented lysis buffer to all wells (75 μl per well). Plates were then placed on a plate shaker and incubated at 850 rpm for an additional 30 min.
Antibody mixture solution was prepared by diluting aliquoted d2 and Eu Cryptate antibodies 1:20 in kit supplied detection buffer, then mixed the diluted antibodies solutions (1:1 v:v).
Samples were homogenized by pipetting up and down and then transferred (16 μL of cell lysates) from the 96-well cell culture plate to two wells of the HTRF 384-well detection plate containing the antibody solution. Plates were centrifuged (524 g for 1 min) and allowed to incubate between 4 and 24 h at room temperature. Maximum signal is reached after 4 h incubation time and remains stable over a period of 24 hours. Therefore, readings can be made between 4 and 24 h of incubation.
With `C=CC(=O)N1C[C@H](C)N(c2nc(OCC34CCCN3CCC4)nc3c(F)c(-c4ccc(F)c5sc(N)c(C#N)c45)c(C(F)(F)F)cc23)C[C@H]1C` [Compound 346], the IC50 was < 0.1 µM.
As to `C=CC(=O)N1CCC(N(CC)c2nc(OC[C@@H]3C[C@@H](F)CN3C)nc3cc(-c4ccc(F)c5sc(N)c(C#N)c45)c(C#N)cc23)[C@H]1COC` (stereo partly drawn) [Compound 471], the IC50 was in the range of 0.1 to 1 µM.
For `C=CC(=O)N1CCC(N(CC)c2nc(OC[C@@]34CCCN3C[C@H](F)C4)nc3cc(-c4ccc(F)c5sc(N)c(C#N)c45)ccc23)[C@H]1COC` (stereo partly drawn) [Compound 440], the IC50 lay in the range of 0.1 to 1 µM.
Same read-out and setting: next, `C=CC(=O)N1CCC(Nc2nc(OC[C@@H]3CCCN3C)nc3c(F)c(-c4ccc(F)c5sc(N)nc45)c(Cl)cc23)C1` (stereo partly drawn) [Compound 52]: > 1 µM; `C=CC(=O)N1C[C@H](C)N(c2nc(OC[C@@]34CCCN3C[C@H](F)C4)nc3c(F)c(-c4ccc(F)c5sc(N)nc45)c(C(F)F)cc23)C[C@H]1C` [Compound 291]: < 0.1 µM.
Consider `C=CC(=O)N1CC[C@@H](N(C)c2nc(OC[C@@]34CCCN3C[C@H](F)C4)nc3c(F)c(-c4ccc(F)c5sc(N)nc45)c(C#N)cc23)[C@H]1C` [Compound 373], for which the IC50 lay in the range of 0.1 to 1 µM.
Still for that read-out and setting: next, `C=CC(=O)N1C[C@H](C)N(c2nc(OCC3(CN4CCOCC4)CC3)nc3c(F)c(-c4ccc(F)c5sc(N)nc45)c(C(F)(F)F)cc23)C[C@H]1C` [Compound 285]: < 0.1 µM; `C=CC(=O)N1CCC(N(C)c2nc(OC[C@@]34CCCN3C[C@H](F)C4)nc3cc(-c4ccc(F)c5sc(N)c(C#N)c45)c(C#N)cc23)[C@H]1C` (stereo partly drawn) [Compound 387, 4-((1-acryloyl-2-methylpyrrolidin-3-yl)(methyl)amino)-7-(2-amino-3-cyano-7-fluorobenzo[b]thiophen-4-yl)-2-(((2R,7aS)-2-fluorotetrahydro-1H-pyrrolizin-7a(5H)-yl)methoxy)quinazoline-6-carbonitrile]: < 0.1 µM.
As for `C=CC(=O)N1CC[C@@H](N(C)c2nc(OCC34CCCN3CCC4)nc3c(F)c(-c4cc(O)cc5ccccc45)c(C(F)(F)F)cc23)C1` [Compound 226], the IC50 lay in the range of 0.1 to 1 µM.
For `C=CC(=O)N1C[C@H](C)N(c2nc(OC[C@@]34CCCN3C[C@@H](F)C4)nc3c(F)c(-c4ccc(F)c5sc(N)nc45)c(C(F)(F)F)cc23)C[C@H]1C` [Compound 219], the IC50 is < 0.1 µM.
For `CC#CC(=O)N1CC[C@@H]2[C@H]1CN2c1nc(OCC23CCCN2CCC3)nc2c(F)c(-c3ccc(F)c4sc(N)nc34)c(Cl)cc12` [Compound 118], the IC50 is > 1 µM.
In the case of `C=CC(=O)N1CCC(N(CC)c2nc(OC[C@@]34CCCN3C[C@H](F)C4)nc3c(F)c(-c4ccc(F)c5sc(N)c(C#N)c45)ccc23)[C@H]1C` (stereo partly drawn) [Compound 421], the IC50 was < 0.1 µM.
With `C=CC(=O)N1CCN(c2nc(OCC34CCCN3CCC4)nc3c(F)c(-c4ccc(F)c5oc(N)nc45)c(C(F)(F)F)cc23)CC1` [Compound 162, 1-(4-(7-(2-amino-7-fluorobenzo[d]oxazol-4-yl)-8-fluoro-2-((tetrahydro-1H-pyrrolizin-7a(5H)-yl)methoxy)-6-(trifluoromethyl)quinazolin-4-yl)piperazin-1-yl)prop-2-en-1-one], the IC50 was 0.1 to 1 µM.
On the same count and under the same terms, to `C=CC(=O)N1CC(Nc2nc(OCC34CCCN3CCC4)nc3c(F)c(-c4ccc(F)c5sc(N)nc45)c(-c4ccoc4)cc23)C1` [Compound 70, 1-(3-((7-(2-amino-7-fluorobenzo[d]thiazol-4-yl)-8-fluoro-6-(furan-3-yl)-2-((tetrahydro-1H-pyrrolizin-7a(5H)-yl)methoxy)quinazolin-4-yl)amino)azetidin-1-yl)prop-2-en-1-one] belongs > 1 µM; to `C=CC(=O)N1CCN(c2nc(OCC34CCCN3CC(F)(F)C4)nc3c(F)c(-c4ccc(F)c5sc(N)nc45)c(C(F)(F)F)cc23)CC1` (stereo not drawn) [Compound 192], < 0.1 µM.
Take `C=CC(=O)N1CC(Nc2nc(OC[C@@]34CCCN3C[C@H](F)C4)nc3c(F)c(-c4ccc(F)c5sc(N)nc45)c(C(F)(F)F)cc23)C1` [Compound 270]: the IC50 is < 0.1 µM.
With `C=CC(=O)N1CC[C@@H](N(CC)c2nc(OC[C@@]34CCCN3C[C@H](F)C4)nc3c(F)c(-c4ccc(F)c5sc(N)nc45)c(C(F)(F)F)cc23)C1` [Compound 257], the IC50 is < 0.1 µM.
Regarding `C=CC(=O)N1CCC(N(C)c2nc(OC[C@@]34CCCN3C[C@H](F)C4)nc3cc(-c4ccc(F)c5sc(N)c(C#N)c45)ccc23)[C@H]1COC` (stereo partly drawn) [Compound 389, 4-(4-((1-acryloyl-2-(methoxymethyl)pyrrolidin-3-yl)(methyl)amino)-2-(((2R,7aS)-2-fluorotetrahydro-1H-pyrrolizin-7a(5H)-yl)methoxy)quinazolin-7-yl)-2-amino-7-fluorobenzo[b]thiophene-3-carbonitrile], the IC50 was < 0.1 µM.
In the case of `C=CC(=O)N1CC(Nc2nc(OC[C@@H]3CCCN3C)nc3c(F)c(-c4ccc(F)c5sc(N)nc45)ncc23)C1` [Compound 43], the IC50 is > 1 µM.
On to `C=CC(=O)N1C[C@H](N(C)c2ncnc3c(F)c(-c4ccc(F)c5sc(N)nc45)c(C(F)(F)F)cc23)C2(CC2)C1` (atropisomer, axis not shown) [Compound 263], for which the IC50 is > 1 µM.
The same measure, in the same setting: to `C=CC(=O)N1C[C@H](C)N(c2nc(OCC34CCCN3CCC4)nc3c(F)c(-c4ccc(F)c5sc(N)nc45)c(C(F)(F)F)cc23)C[C@H]1C` [Compound 281] belongs < 0.1 µM; to `C=CC(=O)N1C[C@H](N(C)c2nc(OC[C@@]34CCCN3C[C@H](F)C4)nc3c(F)c(-c4ccc(F)c5sc(N)nc45)c(C(F)(F)F)cc23)C2(CC2)C1` [Compound 294], < 0.1 µM; to `C=CC(=O)N1C[C@H](F)[C@@H](N(C)c2nc(OC[C@@]34CCCN3C[C@H](F)C4)nc3cc(-c4ccc(F)c5sc(N)nc45)c(C(F)(F)F)cc23)C1` [Compound 335], < 0.1 µM.
For the molecule `C=CC(=O)N1CCC(N(C)c2nc(OC[C@@H]3C[C@@H](F)CN3C)nc3c(F)c(-c4ccc(F)c5sc(N)c(C#N)c45)c(C(F)(F)F)cc23)[C@H]1COC` (stereo partly drawn) [Compound 443], the IC50 was < 0.1 µM.
Regarding `C=CC(=O)N1CCC(N(C)c2nc(OC[C@@H]3CCCN3C)nc3c(F)c(-c4ccc(F)c5sc(N)c(C#N)c45)c(C(F)(F)F)cc23)[C@H]1C` (stereo partly drawn) [Compound 400], the IC50 is < 0.1 µM.
In the case of `C=CC(=O)N1C[C@H](C)N(c2nc(OCC34CCCN3C[C@H](F)C4)nc3c(F)c(-c4ccc(F)c5sc(C(F)F)nc45)c(C(F)(F)F)cc23)C[C@H]1C` (stereo partly drawn) [Compound 307], the IC50 was < 0.1 µM.
On to `C=CC(=O)N1C[C@@H](F)[C@@H](N(C)c2nc(OC[C@@]34CCCN3C[C@H](F)C4)nc3c(F)c(-c4ccc(F)c5sc(N)c(C#N)c45)c(Cl)cc23)C1` [Compound 365], for which the IC50 was < 0.1 µM.
Same read-out and setting: to `C=CC(=O)N1C[C@@H](F)[C@@H](N(CC)c2nc(OC[C@@]34CCCN3C[C@H](F)C4)nc3cc(-c4ccc(F)c5sc(N)c(C#N)c45)c(C#N)cc23)C1` [Compound 386] belongs < 0.1 µM.
The same measure, in the same setting: to `C=CC(=O)N1CCC(N(C)c2nc(OCCO)nc3c(F)c(-c4ccc(F)c5sc(N)c(C#N)c45)ccc23)[C@H]1C` (stereo partly drawn) [Compound 468] belongs 0.1 to 1 µM; to `C=CC(=O)N1CCN(c2nc(OC[C@@H]3CCCN3C)nc3c(F)c(-c4ccc(F)c5sc(N)nc45)c(OC(F)(F)F)cc23)CC1` [Compound 163], 0.1 to 1 µM.
On the same count and under the same terms, to `C=CC(=O)N1CCC(N(C)c2nc(OC[C@@H]3C[C@@H](OC)CN3C)nc3c(F)c(-c4ccc(F)c5sc(N)c(C#N)c45)ccc23)[C@H]1COC` (stereo partly drawn) [Compound 424] belongs < 0.1 µM; to `C=CC(=O)N1CCC(N(CC)c2nc(OC[C@@H]3CC4(CC4)CN3C)nc3c(F)c(-c4ccc(F)c5sc(N)c(C#N)c45)c(C(F)(F)F)cc23)[C@H]1COC` (stereo partly drawn) [Compound 445], < 0.1 µM; to `C=CC(=O)N1CCC(N(C)c2ncnc3c(F)c(-c4ccc(F)c5sc(N)c(C#N)c45)ccc23)[C@H]1C` (stereo partly drawn) [Compound 462], > 1 µM.
As for `C=CC(=O)N1CCC(N(C)c2nc(OC[C@@H]3C[C@@H](F)CN3C)nc3c(F)c(-c4ccc(F)c5sc(N)c(C#N)c45)c(Cl)cc23)[C@H]1C` (stereo partly drawn) [Compound 449], the IC50 was in the range of 0.1 to 1 µM.

Staying with this test, now noted: pERK inhibition IC50, NCI-H358 cells, 30 min incubation; read-out: PERK in H358 cell.
For the molecule `C=CC(=O)N1CC[C@@H](N(C)c2nc(OC[C@@H]3CC(F)(F)CN3C)nc3c(F)c(-c4ccc(F)c5sc(N)nc45)c(C(F)(F)F)cc23)C1` (atropisomer, axis not shown) [Compound 229], the IC50 was > 1 µM.
With `C=CC(=O)N1CC[C@@H](N(C)c2nc(OC[C@@H]3CC4(CC4)CN3C)nc3c(F)c(-c4ccc(F)c5sc(N)nc45)c(C(F)(F)F)cc23)C1` (atropisomer, axis not shown) [Compound 256], the IC50 was < 0.1 µM.
As to `C=CC(=O)N1CC[C@@H](Nc2nc(OC[C@@]34CCCN3C[C@H](F)C4)nc3c(F)c(-c4ccc(F)c5sc(N)nc45)c(C(F)(F)F)cc23)C1` (single isomer, unassigned) [Compound 271], the IC50 was < 0.1 µM.
On the same count and under the same terms, next, `C=CC(=O)N1C[C@H](C)N(c2nc(OC[C@@]34CCCN3C[C@H](F)C4)nc3c(F)c(-c4ccc(F)c5sc(N)nc45)c(C(F)(F)F)cc23)C[C@H]1C` (atropisomer, axis not shown) [Compound 268]: < 0.1 µM; `C=CC(=O)N1CCC[C@@H](N(C)c2nc(OC[C@@]34CCCN3C[C@H](F)C4)nc3c(F)c(-c4ccc(F)c5sc(N)nc45)c(C(F)(F)F)cc23)C1` [Compound 244]: < 0.1 µM.
